2 compounds from publication PMC6539868, “Syntheses and Biological Studies of Cu(II) Complexes Bearing Bis(pyrazol-1-yl)- and Bis(triazol-1-yl)-acetato Heteroscorpionate Ligands” (Molecules, 2019) can be followed below.

The subject of one data set is 2008. Description: MTT cytotoxicity assay, 2D monolayer. Type of data set: cell-based, human. To be noted: 72 h, MTT test, ovarian cancer; read-out: IC50 (µM) ± S.D. 2008. From the text: (§1) Human lung (A549), colon (HCT-15 and LoVo) and breast (MCF-7) carcinoma cell lines were obtained from American Type Culture Collection (ATCC, Rockville, MD, USA). Human pancreatic BxPC3 carcinoma cells were obtained from European Collection of Cell Culture (ECACC, Salisbury, UK). Human ovarian 2008 cancer cells were kindly provided by Prof. G. Marverti (Dept. of Biomedical Science of Modena University, Modena, Italy). Human squamous cervical A431 carcinoma cells were kindly provided by Prof. F. Zunino (Division of Experimental Oncology B, Istituto Nazionale dei Tumori, Milan, Italy). The LoVo-OXP cells were obtained as previously described. Cell lines were maintained in culture in the logarithmic phase at 37 °C in a 5% carbon dioxide atmosphere using the following media added of 10% fetal calf serum (Euroclone, Milan, Italy), antibiotics (50 units/mL penicillin and 50 μg/mL streptomycin), and 2 mM L-glutamine: (i) RPMI-1640 medium (Euroclone) for HCT-15, A431, MCF-7, BxPC3 and 2008 cells; (ii) F-12 HAM’S (Sigma Chemical Co.) for A549, LoVo and LoVo-OXP cells.
(§2) The growth inhibitory effect towards 2D tumor cell lines was evaluated by means of MTT assay as previously described. IC50 values were calculated by four parameters logistic (4-PL) model. All the values are the means ± SD of not less than five measurements starting from three different cell cultures.
(§3) The in vitro antitumor activity of copper(II) complexes 1–3 and the uncoordinated ligands [HC(COOH)(pz^Me2)2], [HC(COOH)(pz)2] and [HC(COOH)(tz)2] was evaluated against a panel of human cancer cell lines derived from solid tumors. Adherent cell lines representative of cervical (A431), pancreatic (BxPC3) colon (HCT-15), breast (MCF-7), lung (A549), and ovarian (2008) cancers, differently sensitive to cisplatin, were exposed to the indicated compounds for 72 h.

The subject of the next data set is A431. Description: MTT cytotoxicity assay, 2D monolayer. It counts as cell-based, human. The conditions noted are these: 72 h, MTT test, cervical carcinoma; read-out: IC50 (µM) ± S.D. A431.
Description: as §1, §2, §3
A general note: Formazan colour is commonly taken as a measure of viable cells.

A further data set has as its system A549. Description: MTT cytotoxicity assay, 2D monolayer. Type of data set: cell-based, human. To be noted: 72 h.
Description: as §1, §2, §3

In the next data set the test system is BxPC3. Description: MTT cytotoxicity assay, 2D monolayer. It counts as cell-based, human. The conditions noted are these: 72 h, MTT test, pancreatic carcinoma; read-out: IC50 (µM) ± S.D. BxPC3.
Description: as §1, §2, §3

The next data set has as its system HCT-15. The data set is described as follows: MTT cytotoxicity assay, 2D monolayer. Type of data set: cell-based, human. To be noted: 72 h.
Description: as §1, §2, §3

In a further data set the test system is MCF-7. Description: MTT cytotoxicity assay, 2D monolayer. Type of data set: cell-based, human. The conditions noted are these: 72 h, MTT test, breast carcinoma; read-out: IC50 (µM) ± S.D. MCF-7.
Description: as §1, §2, §3

The test system of a further data set is LoVo-OXP. The data set is described as follows: MTT cytotoxicity assay, cross-resistance profile. Type of data set: cell-based, human.
Description: as §1, §2
(§4) HCT-15 colon cancer cells are notoriously poorly chemosensitive to cisplatin. […] As for cisplatin, the clinical effectiveness of OXP is seriously hampered by the cancer cell resistance and, at present, few other drug regimens are available for patients with OXP-refractory colorectal cancers. […] The RF values (calculated by dividing IC50 for resistant cells by those for sensitive ones) were about 10 times lower than that of OXP, excluding the occurrence of cross-resistance phenomena.

The next data set relates to LoVo. The data set is described as follows: MTT cytotoxicity assay, cross-resistance profile. Type of data set: cell-based, human. The conditions noted are these: 72 h, MTT test, oxaliplatin-sensitive colon cancer cells; read-out: IC50 (µM) ± S.D. LoVo.
Description: as §1, §2, §4

Data set [1] has as its system HCT-15 colon cancer cell spheroids. The data set is described as follows: Acid phosphatase (APH) assay in 3D spheroids. It counts as cell-based, human. The conditions noted are these: 72 h, APH test, read-out: IC50 (µM) ± S.D. HCT-15 spheroids. The procedure:
Spheroid cultures were obtained by seeding 2.5 × 10^3 HCT-15 cells/well in round bottom non-tissue culture treated 96 well-plate (Greiner Bio-one, Kremsmünster, Austria) in phenol red free RPMI-1640 medium (Sigma Chemical Co.), containing 10% FCS and supplemented with 20% methyl cellulose stock solution.
An APH modified assay was used for determining cell viability in 3D spheroids, as previously described. IC50 values were calculated with a four parameter logistic (4-PL) model. All the values are the means ± SD of not less than four independent experiments.
The in vitro antitumor efficacy of the newly developed compounds was also tested on 3D colon cancer cell culture models. Differently from 2D monolayer culture, 3D spheroid cell culture systems comprise cancer cells in various cell growth stages. Consequently, the multicellular cancer spheroid model is recognized to better reflect the tumor mass in vivo regarding drug permeation, cell interactions, gene expression, hypoxia and nutrient gradients with respect to monolayer cell cultures. Table 4 summarizes the IC50 values obtained after treatment of 3D cell spheroids of human HCT-15 colon cancer cells with copper(II) compounds as well as with cisplatin, as reference drug. In accordance with 2D chemosensitivity assays, complex 3 was scarcely effective, whereas complex 1 was as effective as cisplatin. […] We hypothesize that in this non-proliferative and very resistant tumor model the higher lipophilicity of 1, due to the presence of methyl substituents on the pyrazolyl rings, might be responsible for the enhanced compound penetration in the core area of spheroids.

The test system of data set [2] is panel of human cancer cell lines derived from solid tumors. The data set is described as follows: MTT cytotoxicity, whole panel of human cancer cell lines. Type of data set: cell-based. To be noted: mean over the cell lines of Table 2, 72 h. As for the experimental part:
as §2, §3, §4

Data set [3] concerns LoVo cells. Description: Cellular uptake (intracellular copper by GF-AAS). It counts as cell-based, human. The conditions noted are these: 24 h, 2 μM. The procedure: LoVo cells (2.5 × 10^6) were seeded in 75 cm^2 flasks in growth medium (20 mL). After overnight incubation, the medium was replaced, and the cells were treated with tested compounds for 24 h. Cell monolayers were then processed and mineralized as previously described. The sample was analyzed for copper by using a Varian AA Duo graphite furnace atomic absorption spectrometer (Varian, Palo Alto, CA, USA) at the wavelength of 324 nm. The calibration curve was obtained using known concentrations of standard solutions purchased from Sigma Chemical Co.
With the purpose of underling a possible correlation between cellular uptake efficiency and cytotoxicity, LoVo cells were treated for 24 h with equimolar concentrations (2 μM) of copper(II) complexes and the intracellular copper amount was quantified by means of Graphite Furnace Atomic Absorption Spectrometry (GF-AAS) analysis. […] In fact, the intracellular copper content detected in LoVo cells follows the same cytotoxicity trend 1 > 2 > 3.

For data set [4], the system named is LoVo cells. Description: Transmission electron microscopy (TEM) analysis. The conditions noted are these: IC50 of compound, 24 h. It counts as cell-based, human. As for the experimental part: Approximately 10^6 LoVo cells were seeded in 24-well plates and, after 24 h incubation, treated with 1 and incubated further 24 h. Samples were then washed with cold PBS, harvested and fixed with 1.5% glutaraldehyde buffer with 0.2 M sodium cacodylate, pH 7.4. After washing with buffer and post-fixation with 1% OsO4 in 0.2 M cacodylate buffer, samples were desiccated and embedded in epoxy resin (Epon Araldite). Sagittal serial sections of about 1 μm were counterstained with toluidine blue; subsequently, sections of 90 nm were stained with uranyl acetate and lead citrate.
Micrographs were taken with a Hitachi H-600 electron microscope (Hitachi, Tokyo, Japan) at 75 kV. All photos were elaborated in Corel Draw 11 (Corel Corporation, Ottawa, ON, Canada).
Transmission electron microscopy (TEM) analysis has been performed in order to investigate the influence of copper compounds on LoVo cells morphology and their organelles.

The next data set is described as follows: Solubility. Type of data set: physicochemical.
The next data set is described as follows: Stability to air. Type of data set: physicochemical. The conditions noted are these: also as solutions.
In data set [5] the test system is LoVo cells. Description: ROS production (CM-H2DCFDA). Type of data set: cell-based, human. The conditions noted are these: 15 μM complexes, antimycin 3 μM. The procedure:
The production of ROS was measured in LoVo cells (10^4 per well) grown for 24 h in a 96-well plate in RPMI medium without phenol red. Samples were loaded with 10 μM 5-(and-6)-chloromethyl-2′,7′-dichlorodihydrofluorescein diacetate acetyl ester (CM-H2DCFDA) (Molecular Probes-Invitrogen, Eugene, OR, USA) for 25 min, in the dark. Afterward, each well was washed with PBS and incubated with tested complexes. The fluorescence intensity in each well was assessed by means of a Fluoroskan Ascent FL (Labsystem, Vantaa, Finland) plate reader (ex: 485 nm; em: 527 nm). Antimycin (3 μM, Sigma), a well-known inhibitor of the electron transport chain at Complex III level, was used as reference compound.
It has been documented that oxidative stress and generation of ROS play a significant role in anticancer activity of copper(II) compounds [22, 81]. To explore the molecular mechanisms underlying the cytotoxicity of newly synthetized copper(II) complexes, cellular production of ROS upon treatment with 15 μM of complex 1, 2 or 3 was monitored in LoVo cells by using the peroxide-sensitive fluorescent probe CM-H2DCFDA (Figure 5). […] Conversely, for all copper complexes there was no ROS induction.

Regarding `Cc1cc(C)n(C(C(=O)O)n2nc(C)cc2C)n1.Cc1cc(C)n(C(C(=O)[O-])n2nc(C)cc2C)n1.[Cu+2].[O-][Cl+3]([O-])([O-])[O-]` [compound 1, [HC(COOH)(pz^Me2)2]Cu[HC(COO)(pz^Me2)2]·ClO4], the IC50 amounted to 10.8 ± 1.3 µM in the data set with 2008; 3.8 ± 1.1 µM in the data set with A431; 3.6 ± 0.5 µM in the data set with A549 (MTT test, lung carcinoma, read-out: IC50 (µM) ± S.D. A549); 2.5 ± 0.4 µM with BxPC3; 8.5 ± 0.6 µM with HCT-15 (MTT test, colon carcinoma, read-out: IC50 (µM) ± S.D. HCT-15); 10.5 ± 2.1 µM in the data set on MCF-7. Moreover, the IC50 in the data set on LoVo-OXP (72 h, MTT test, oxaliplatin-resistant colon cancer cells, read-out: IC50 (µM) ± S.D. LoVo-OXP) turned out to be 5.2 ± 0.6 µM; with LoVo, 4.2 ± 0.9 µM; in [1], 67.8 ± 14.9 µM; in [2], 6.5 µM. The “fold more effective than cisplatin” value in the data set with A549 (A549 cells, MTT) is reported as “roughly 2 fold”; with HCT-15 (HCT-15 cells, MTT) it was “roughly 2 fold”. Also, the “RF times lower than that of OXP” value in the data set on LoVo-OXP (LoVo-OXP/LoVo) is “about 10 times”. The “RF (resistance factor)” value with LoVo-OXP (RF = IC50 (resistant cells)/IC50 (wild-type cells), LoVo-OXP/LoVo) turned out to be 1.2. Also, the “cellular uptake efficiency (intracellular copper amount)” value in the data set with LoVo cells [3] was “taken up slightly more efficiently than complex 2”. Further, in the data set with LoVo cells [4], the “cytoplasmic vacuolization (TEM morphology)” value was “massive cytoplasmic vacuolization”. Further, the “hallmarks of apoptosis (TEM morphology)” value in the data set with LoVo cells [4] is “no classical hallmarks of apoptosis”. Also, in “Solubility” (methanol, DMSO, acetonitrile), the “solubility in methanol, DMSO and acetonitrile” value is “soluble”. Besides, the solubility in water result in the data set “Solubility” (water) is reported as “slightly soluble”. Also, the air stability result in the data set “Stability to air” is “air stable even as solutions”.

As for Antimycin, in the data set with LoVo cells [5], the ROS production result is reported as “markedly stimulated ROS formation”.

Usually IC50 stands for the concentration needed to halve the response being measured.
